From US20240343694A1, “PYRIMIDINE DERIVATIVE, METHOD FOR PREPARING SAME, AND PHARMACEUTICAL COMPOSITION FOR PREVENTING OR TREATING CANCER COMPRISING SAME AS ACTIVE INGREDIENT” (KOREA RESERARCH INSTITUTE OF CHEMICAL TECHNOLOGY, priority 2021, published 2024)

What was measured:
Ba/F3 HER2 G776delinsVC = test: Growth inhibition of Ba/F3 HER2 mutant cells (CellTiter-Glo); type: cell-based; conditions: Mus musculus, BaF3, 72 hours
Experimental: (§1) The activity of the compounds of the present invention against Ba/F3 HER2 A775_G776insYVMA and Ba/F3 HER2 G776delinsVC mutant cell lines was measured using the CellTiter-Glo system purchased from Promega as follows. CellTiter-Glo assay is a method to measure cell viability by monitoring ATP present in cells. Ba/F3 HER2 A775_G776insYVMA and Ba/F3 HER2 G776delinsVC mutant cell lines were purchased from Crown Biosciences. Ba/F3 HER2 A775_G776insYVMA and Ba/F3 HER2 G776delinsVC mutant cell lines were cultured in RPMI containing 10% FBS and 1% penicillin-streptomycin with 1 μg/mL of puromycin in a CO2 incubator at 37° C.
(§2) The analysis of the ability of the compounds to inhibit the growth of HER2 mutant cells was performed according to the following method. 1,000 cells/100 μL were seeded in a 96-well cell culture plate, and 24 hours thereafter, the compounds represented by Formula 1 were treated with 0 μM, 0.01 μM, 0.03 μM, 0.1 μM, 0.3 μM, 1 μM, 3 μM, and 10 μM. After reacting for 72 hours, the plate treated with the compounds were left at room temperature for 30 minutes, 100 μL of a reagent was added thereto, and then shaken at room temperature for 10 minutes. Finally, using equipment, the ratio of […] was measured to confirm the cell growth inhibition ability of the compounds. The measured values at 8 compound concentrations were analyzed using the Prism program (version 5.01, Graphpad Software, Inc.), and the IC50 (μM) values, which are measures of the compounds' inhibitory ability, were calculated.

[1] = tested on: Ba/F3 HER2 A775_G776insYVMA; test: as above; type: cell-based; conditions: Mus musculus, BaF3, 72 hours
Experimental: as §1, §2

EGFR A763_Y764insFHEA = EGFR A763_Y764insFHEA (Homo sapiens (Human), UniProt P00533, INS763FHEA); test: HTRF inhibitory activity against EGFR mutant enzyme (EGFR A763_Y764insFHEA); type: biochemical; conditions: recombinant enzyme, 37° C. for 2 hours
Sequence of EGFR A763_Y764insFHEA (P00533 other isoform, or with tags, fused parts or gaps del 1-694/ins FHEA behind 763 limits assumed): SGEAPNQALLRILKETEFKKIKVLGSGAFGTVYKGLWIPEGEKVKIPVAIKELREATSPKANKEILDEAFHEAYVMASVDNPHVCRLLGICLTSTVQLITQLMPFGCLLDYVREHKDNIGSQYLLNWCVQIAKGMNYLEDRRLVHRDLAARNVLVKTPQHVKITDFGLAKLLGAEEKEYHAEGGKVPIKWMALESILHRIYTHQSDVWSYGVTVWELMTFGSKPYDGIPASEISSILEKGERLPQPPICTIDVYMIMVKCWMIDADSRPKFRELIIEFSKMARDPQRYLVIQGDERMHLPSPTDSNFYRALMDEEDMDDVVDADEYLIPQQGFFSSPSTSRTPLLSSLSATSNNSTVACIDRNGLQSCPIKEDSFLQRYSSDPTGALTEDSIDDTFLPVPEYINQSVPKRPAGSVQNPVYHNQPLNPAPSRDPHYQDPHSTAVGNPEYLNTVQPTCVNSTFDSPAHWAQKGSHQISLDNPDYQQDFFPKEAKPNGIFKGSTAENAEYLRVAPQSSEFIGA
In short: (§3)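 Recombinant EGFR del19 or A763_Y764insFHEA was premixed with compound in 50 mM Tris pH 7.5 with 7.5 mM MgCl2 and 1 mM DTT. ATP (50 mM as printed) and biotin-peptide (0.5 mM) were added and reacted 2 h at 37 °C. The HTRF 665/615 read used streptavidin-XL665 and Eu anti-phosphotyrosine. IC50 was fitted from 7 concentrations.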

EGFR del19 = EGFR del19 (Homo sapiens (Human), UniProt P00533, DEL746-750); test: HTRF inhibitory activity against EGFR mutant enzyme (EGFR del19); type: biochemical; conditions: recombinant enzyme, 37° C. for 2 hours
Sequence of EGFR del19 (P00533 other isoform, or with tags, fused parts or gaps del 1-668/del 746-750 limits assumed): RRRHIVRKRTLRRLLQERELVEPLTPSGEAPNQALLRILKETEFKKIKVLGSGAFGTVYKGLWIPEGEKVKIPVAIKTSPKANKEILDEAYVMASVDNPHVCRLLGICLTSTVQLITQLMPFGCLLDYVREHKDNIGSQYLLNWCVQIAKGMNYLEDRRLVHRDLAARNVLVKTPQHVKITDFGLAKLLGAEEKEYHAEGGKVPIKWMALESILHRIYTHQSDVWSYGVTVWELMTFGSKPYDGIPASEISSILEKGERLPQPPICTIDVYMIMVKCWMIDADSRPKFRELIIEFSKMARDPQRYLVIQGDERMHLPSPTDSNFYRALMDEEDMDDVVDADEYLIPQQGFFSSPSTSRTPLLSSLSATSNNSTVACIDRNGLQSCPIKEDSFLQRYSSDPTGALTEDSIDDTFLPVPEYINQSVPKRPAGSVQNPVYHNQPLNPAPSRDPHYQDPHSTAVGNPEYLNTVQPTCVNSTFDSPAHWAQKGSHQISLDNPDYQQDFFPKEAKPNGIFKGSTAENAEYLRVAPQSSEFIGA
In short: as §3

[2] = tested on: Ba/F3 EGFR V769_D770insASV; test: Growth inhibition of Ba/F3 EGFR mutant cells (CellTiter-Glo); type: cell-based; conditions: 72 hours
Experimental: (§4) The activity of the compounds of the present invention against Ba/F3 EGFR V769_D770insASV and Ba/F3 EGFR D770_N771insSVD mutant cell lines was measured using the CellTiter-Glo system purchased from Promega as follows. CellTiter-Glo assay is a method to measure cell viability by monitoring ATP present in cells. Ba/F3 EGFR V769_D770insASV and Ba/F3 EGFR D770_N771insSVD mutant cell lines were purchased from Crown Biosciences. Ba/F3 EGFR V769_D770insASV and Ba/F3 EGFR D770_N771insSVD mutant cell lines were cultured in RPMI containing 10% FBS and 1% penicillin-streptomycin with 1 μg/mL of puromycin in a 5% CO2 incubator at 37° C.
as §2, with “growth of EGFR mutant cells” for “growth of HER2 mutant cells”, “μM. After incubating for 72” for “μM. After reacting for 72”, “reagent was further added thereto,” for “reagent was added thereto,”

[3] = tested on: Ba/F3 EGFR D770_N771insSVD; test: as above; type: cell-based; conditions: Ba/F3 EGFR-D770-N771ins_SVD, 72 hours
Experimental: as §4
as §2, with “growth of EGFR mutant cells” for “growth of HER2 mutant cells”, “μM. After incubating for 72” for “μM. After reacting for 72”, “reagent was further added thereto,” for “reagent was added thereto,”

HER2 A775_G776insYVMA = HER2 A775_G776insYVMA (Homo sapiens (Human), UniProt P04626, INS775YVMA); test: HTRF inhibitory activity against HER2 mutant enzyme; type: biochemical; conditions: recombinant enzyme, 37° C. for 2 hours
Sequence of HER2 A775_G776insYVMA (P04626 other isoform, or with tags, fused parts or gaps del 1-675/ins YVMA behind 775 limits assumed): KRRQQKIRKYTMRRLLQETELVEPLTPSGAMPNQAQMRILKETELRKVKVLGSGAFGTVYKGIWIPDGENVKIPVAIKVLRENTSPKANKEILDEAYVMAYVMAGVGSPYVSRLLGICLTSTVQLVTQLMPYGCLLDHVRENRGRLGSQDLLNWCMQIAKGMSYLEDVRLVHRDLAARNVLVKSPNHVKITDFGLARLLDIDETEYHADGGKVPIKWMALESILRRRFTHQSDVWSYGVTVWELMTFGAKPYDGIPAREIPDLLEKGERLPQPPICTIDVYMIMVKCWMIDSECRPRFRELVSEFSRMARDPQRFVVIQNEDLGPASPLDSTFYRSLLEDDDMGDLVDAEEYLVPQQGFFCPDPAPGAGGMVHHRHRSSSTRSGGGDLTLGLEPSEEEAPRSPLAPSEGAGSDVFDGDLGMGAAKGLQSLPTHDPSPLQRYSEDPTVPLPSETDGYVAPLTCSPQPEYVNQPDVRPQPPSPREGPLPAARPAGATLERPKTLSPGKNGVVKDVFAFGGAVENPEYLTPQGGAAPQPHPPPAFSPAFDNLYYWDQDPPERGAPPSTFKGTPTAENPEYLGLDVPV
In short: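 Recombinant HER2 A775_G776insYVMA preincubated with compound, then […] and biotinylated peptide ([…]) added; 2 h at 37 °C in Tris-HCl pH 7.5 buffer with MgCl2, DTT. HTRF detection (Eu anti-phosphotyrosine/streptavidin-XL665); IC50 from 7 concentrations.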

| IC50 (Ba/F3 HER2 G776delinsVC) [nM] | IC50 [1] [nM] | IC50 (EGFR A763_Y764insFHEA) [nM] | IC50 (EGFR del19) [nM] | IC50 [2] [nM] | IC50 [3] [nM] | IC50 (HER2 A775_G776insYVMA) [nM] | Structure (SMILES) |
| --- | --- | --- | --- | --- | --- | --- | --- |
| < 10 | > 100 | 3 | 1 | 30 to 50 | 30 to 50 | 52 | C=CC(=O)Nc1cc(Nc2ncc(Cl)c(Nc3ccc(C)c(C)c3NC(C)=O)n2)c(OC)cc1N(C)CCN(C)C [Example 84, N-(5-((4-((2-acetamido-3,4-dimethylphenyl)amino)-5-chloropyrimidin-2-yl)amino)-2-((2-(dimethylamino)ethyl)(methyl)amino)-4-methoxyphenyl)acrylamide] |
| < 10 | < 10 | < 1 | < 1 | < 10 | < 10 | < 1 | C=CC(=O)Nc1cc(Nc2ncc(Cl)c(Nc3cccc4c3N(S(C)(=O)=O)CC4)n2)c(OC)cc1N(C)CCN(C)C [Example 55, N-(5-((5-chloro-4-((1-(methylsulfonyl)indolin-7-yl)amino)pyrimidin-2-yl)amino)-2-((2-(dimethylamino)ethyl)(methyl)amino)-4-methoxyphenyl)acrylamide] |
| < 10 | 50 to 100 | 3 | < 1 | 50 to 100 | 50 to 100 | 60 | C=CC(=O)Nc1cc(Nc2ncc(Cl)c(Nc3cccc4c3N(S(C)(=O)=O)CCC4)n2)c(OC)cc1N1CCC(N2CCN(C)CC2)CC1 [Example 50, N-(5-((5-chloro-4-((1-(methylsulfonyl)-1,2,3,4-tetrahydroquinolin-8-yl)amino)pyrimidin-2-yl)amino)-4-methoxy-2-(4-(4-methylpiperazin-1-yl)piperidin-1-yl)phenyl)acrylamide] |
| < 10 | 50 to 100 | 7 | 3 | 50 to 100 | 50 to 100 | 20 | C=CC(=O)Nc1cc(Nc2ncc(Cl)c(Nc3cccc4c3N(S(C)(=O)=O)CCC4)n2)c(OC)cc1N(C)CCNC [Example 48, N-(5-((5-chloro-4-((1-(methylsulfonyl)-1,2,3,4-tetrahydroquinolin-8-yl)amino)pyrimidin-2-yl)amino)-4-methoxy-2-(methyl(2-(methylamino)ethyl)amino)phenyl)acrylamide] |
| < 10 | 30 to 50 | 1 | < 1 | 30 to 50 | 30 to 50 | 4 | C=CC(=O)Nc1cc(Nc2ncc(Cl)c(Nc3cccc(CC)c3NS(C)(=O)=O)n2)c(OC)cc1N(C)CCN(C)C [Example 40, N-(5-((5-chloro-4-((3-ethyl-2-(methylsulfonamido)phenyl)amino)pyrimidin-2-yl)amino)-2-((2-(dimethylamino)ethyl)(methyl)amino)-4-methoxyphenyl)acrylamide] |
| < 10 | > 100 | 7 | 1 | 30 to 50 | 30 to 50 | 37 | C=CC(=O)Nc1cc(Nc2ncc(Cl)c(Nc3ccccc3NC(C)=O)n2)c(OC)cc1N(C)CCN(C)C [Example 90, N-(5-((4-((2-acetamidophenyl)amino)-5-chloropyrimidin-2-yl)amino)-2-((2-(dimethylamino)ethyl)(methyl)amino)-4-methoxyphenyl)acrylamide] |
| < 10 | 30 to 50 | < 1 | < 1 | < 10 | 30 to 50 | 7 | C=CC(=O)Nc1cc(Nc2ncc(Cl)c(Nc3ccccc3N(CC)S(=O)(=O)CC)n2)c(OC)cc1N(C)CCN(C)C [Example 33, N-(5-((5-chloro-4-((2-(N-ethylethylsulfonamido)phenyl)amino)pyrimidin-2-yl)amino)-2-((2-(dimethylamino)ethyl)(methyl)amino)-4-methoxyphenyl)acrylamide] |
| < 10 | 10 to 30 | 2 | 1 | 10 to 30 | 10 to 30 | 11 | C=CC(=O)Nc1cc(Nc2ncc(Cl)c(Nc3cccc4c3N(C(=O)CC)CC4)n2)c(OC)cc1N(C)CCN(C)C [Example 93, N-(5-((5-chloro-4-((1-propionylindolin-7-yl)amino)pyrimidin-2-yl)amino)-2-((2-(dimethylamino)ethyl)(methyl)amino)-4-methoxyphenyl)acrylamide] |
| < 10 | > 100 | 10 | 1 | < 10 | < 10 | 87 | CC#CC(=O)Nc1cc(Nc2ncc(Cl)c(Nc3cccc4c3N(S(C)(=O)=O)CC4)n2)c(OC)cc1N(C)CCN(C)C [Example 96, N-(5-((5-chloro-4-((1-(methylsulfonyl)indolin-7-yl)amino)pyrimidin-2-yl)amino)-2-((2-(dimethylamino)ethyl)(methyl)amino)-4-methoxyphenyl) but-2-inamide] |
| < 10 | 30 to 50 | 1 | < 1 | 30 to 50 | 30 to 50 | 8 | C=CC(=O)Nc1cc(Nc2ncc(Cl)c(Nc3ccccc3N(C(C)C)S(C)(=O)=O)n2)c(OC)cc1N(C)CCN(C)C [Example 32, N-(5-((5-chloro-4-((2-(N-isopropylmethylsulfonamido)phenyl)amino)pyrimidin-2-yl)amino)-2-((2-(dimethylamino)ethyl)(methyl)amino)-4-methoxyphenyl)acrylamide] |
| < 10 | 30 to 50 | 1 | < 1 | 10 to 30 | 10 to 30 | 5 | C=CC(=O)Nc1cc(Nc2ncc(Cl)c(Nc3cccc4c3N(C(C)=O)CC4)n2)c(OC)cc1N(C)CCNC [Example 92, N-(5-((4-((1-acetylindolin-7-yl)amino)-5-chloropyrimidin-2-yl)amino)-4-methoxy-2-(methyl(2-(methylamino)ethyl)amino)phenyl)acrylamide] |
| < 10 | > 100 | 280 | 15 | 10 to 30 | 10 to 30 | 258 | CC#CC(=O)Nc1cc(Nc2ncc(Cl)c(Nc3cccc4c3N(C(C)=O)CC4)n2)c(OC)cc1N(C)CCN(C)C [Example 97, N-(5-((4-((1-acetylindolin-7-yl)amino)-5-chloropyrimidin-2-yl)amino)-2-((2-(dimethylamino)ethyl)(methyl)amino)-4-methoxyphenyl) but-2-inamide] |
